Tests used:
Test in all cases: Kinase profiling in a biochemical assay panel (mobility shift assays and ELISA), %-inhibition at 1 μM; selectivity entropy
[1] = biological target: panel of more than 300 wild-type and mutant kinases (313 kinase panel) (Homo sapiens, UniProt Q16654)
[2] = biological target: panel of more than 300 wild-type and mutant kinases (313 kinase panel) (Homo sapiens, UniProt P04626); conditions: kinase HER2; compound at 1 μM
[3] = biological target: panel of more than 300 wild-type and mutant kinases (313 kinase panel) (Homo sapiens, UniProt P04629)
[4] = biological target: panel of more than 300 wild-type and mutant kinases (313 kinase panel) (Homo sapiens, UniProt P22455)
[5] = biological target: panel of more than 300 wild-type and mutant kinases (313 kinase panel) (Homo sapiens, UniProt P78368)
[6] = biological target: panel of more than 300 wild-type and mutant kinases (313 kinase panel) (Homo sapiens, UniProt Q13131)
panel of more than 300 wild-type and mutant kinases (313 kinase panel) (Homo sapiens, UniProt Q13131), sequence (Q13131 whole entry, change not shown): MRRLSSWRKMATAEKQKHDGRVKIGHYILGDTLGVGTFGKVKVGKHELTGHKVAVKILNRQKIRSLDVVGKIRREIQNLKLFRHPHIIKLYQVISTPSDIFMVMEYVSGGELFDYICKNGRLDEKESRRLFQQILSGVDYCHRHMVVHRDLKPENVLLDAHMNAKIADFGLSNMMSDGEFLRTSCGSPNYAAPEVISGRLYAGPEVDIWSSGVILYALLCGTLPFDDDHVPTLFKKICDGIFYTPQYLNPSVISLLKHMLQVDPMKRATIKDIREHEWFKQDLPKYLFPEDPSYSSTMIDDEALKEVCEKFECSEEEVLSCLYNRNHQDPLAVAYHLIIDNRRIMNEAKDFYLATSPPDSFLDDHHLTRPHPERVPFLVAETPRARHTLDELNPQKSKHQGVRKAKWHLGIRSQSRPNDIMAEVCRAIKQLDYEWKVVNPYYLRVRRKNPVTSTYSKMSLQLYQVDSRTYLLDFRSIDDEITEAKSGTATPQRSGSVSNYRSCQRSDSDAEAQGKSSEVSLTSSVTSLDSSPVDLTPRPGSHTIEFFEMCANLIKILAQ

[7] = biological target: panel of more than 300 wild-type and mutant kinases (313 kinase panel) (Homo sapiens, UniProt Q13164)
[8] = biological target: panel of more than 300 wild-type and mutant kinases (313 kinase panel) (Homo sapiens, UniProt Q96RG2)
panel of more than 300 wild-type and mutant kinases (313 kinase panel) (Homo sapiens, UniProt Q96RG2), sequence (Q96RG2 whole entry, change not shown): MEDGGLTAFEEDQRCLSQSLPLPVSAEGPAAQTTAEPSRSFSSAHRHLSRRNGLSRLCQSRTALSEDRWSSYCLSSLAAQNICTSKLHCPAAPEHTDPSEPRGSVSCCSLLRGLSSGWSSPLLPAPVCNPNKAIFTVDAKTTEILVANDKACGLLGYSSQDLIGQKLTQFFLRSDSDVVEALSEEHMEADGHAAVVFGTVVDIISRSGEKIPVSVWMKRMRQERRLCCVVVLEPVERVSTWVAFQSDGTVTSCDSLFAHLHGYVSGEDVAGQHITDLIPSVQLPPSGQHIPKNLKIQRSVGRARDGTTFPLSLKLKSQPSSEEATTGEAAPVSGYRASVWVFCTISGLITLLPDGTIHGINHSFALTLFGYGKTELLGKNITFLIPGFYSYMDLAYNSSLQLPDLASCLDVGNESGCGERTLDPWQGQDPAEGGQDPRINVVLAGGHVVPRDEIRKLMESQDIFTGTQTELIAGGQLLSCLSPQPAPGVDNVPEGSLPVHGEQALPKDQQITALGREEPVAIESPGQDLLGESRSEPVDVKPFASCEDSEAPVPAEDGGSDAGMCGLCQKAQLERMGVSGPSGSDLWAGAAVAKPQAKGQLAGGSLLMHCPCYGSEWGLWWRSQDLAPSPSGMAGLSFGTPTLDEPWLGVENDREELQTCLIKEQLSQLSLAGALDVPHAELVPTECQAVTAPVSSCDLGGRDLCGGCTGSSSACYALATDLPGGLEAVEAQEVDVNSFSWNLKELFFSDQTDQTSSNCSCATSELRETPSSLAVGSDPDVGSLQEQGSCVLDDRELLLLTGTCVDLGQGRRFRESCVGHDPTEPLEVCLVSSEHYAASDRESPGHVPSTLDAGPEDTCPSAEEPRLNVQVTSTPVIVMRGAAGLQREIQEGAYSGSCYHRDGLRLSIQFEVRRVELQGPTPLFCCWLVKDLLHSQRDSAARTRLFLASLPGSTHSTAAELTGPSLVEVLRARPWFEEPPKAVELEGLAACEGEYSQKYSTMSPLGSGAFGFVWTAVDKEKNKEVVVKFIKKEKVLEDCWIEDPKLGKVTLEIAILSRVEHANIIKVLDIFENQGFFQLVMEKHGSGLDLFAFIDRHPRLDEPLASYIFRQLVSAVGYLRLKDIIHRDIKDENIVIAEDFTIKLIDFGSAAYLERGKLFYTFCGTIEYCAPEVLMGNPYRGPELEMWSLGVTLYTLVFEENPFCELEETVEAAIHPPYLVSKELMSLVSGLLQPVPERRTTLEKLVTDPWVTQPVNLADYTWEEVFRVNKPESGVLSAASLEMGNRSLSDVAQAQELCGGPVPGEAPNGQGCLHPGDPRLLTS

[9] = biological target: panel of more than 300 wild-type and mutant kinases (313 kinase panel) (Homo sapiens, UniProt Q9NYY3)
[10] = biological target: panel of more than 300 wild-type and mutant kinases (313 kinase panel) (Homo sapiens, UniProt Q9Y3S1)
[11] = biological target: panel of more than 300 wild-type and mutant kinases (313 kinase panel) (Homo sapiens, UniProt P11802)
panel of more than 300 wild-type and mutant kinases (313 kinase panel) (Homo sapiens, UniProt P11802), sequence (P11802 whole entry, change not shown): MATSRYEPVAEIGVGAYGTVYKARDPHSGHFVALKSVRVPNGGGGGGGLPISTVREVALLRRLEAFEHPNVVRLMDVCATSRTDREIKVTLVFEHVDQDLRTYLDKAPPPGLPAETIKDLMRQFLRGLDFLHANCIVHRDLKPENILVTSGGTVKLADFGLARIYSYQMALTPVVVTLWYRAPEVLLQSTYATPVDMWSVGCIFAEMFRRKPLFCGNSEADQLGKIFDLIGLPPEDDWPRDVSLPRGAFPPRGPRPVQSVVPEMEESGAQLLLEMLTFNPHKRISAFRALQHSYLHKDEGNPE

[12] = biological target: panel of more than 300 wild-type and mutant kinases (313 kinase panel) (Homo sapiens, UniProt P45983)
panel of more than 300 wild-type and mutant kinases (313 kinase panel) (Homo sapiens, UniProt P45983), sequence (P45983 whole entry, change not shown): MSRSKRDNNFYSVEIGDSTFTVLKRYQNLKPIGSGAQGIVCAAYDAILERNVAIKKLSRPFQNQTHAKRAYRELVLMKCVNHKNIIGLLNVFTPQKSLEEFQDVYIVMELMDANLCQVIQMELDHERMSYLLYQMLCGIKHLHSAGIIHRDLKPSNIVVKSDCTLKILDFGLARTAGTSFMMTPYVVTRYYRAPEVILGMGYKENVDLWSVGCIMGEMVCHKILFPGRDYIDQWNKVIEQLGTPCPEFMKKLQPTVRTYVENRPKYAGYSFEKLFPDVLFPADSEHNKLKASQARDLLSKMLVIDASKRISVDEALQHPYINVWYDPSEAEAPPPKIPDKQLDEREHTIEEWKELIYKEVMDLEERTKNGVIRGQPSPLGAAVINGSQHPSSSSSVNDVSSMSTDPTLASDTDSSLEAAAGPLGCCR

[13] = biological target: panel of more than 300 wild-type and mutant kinases (313 kinase panel) (Homo sapiens, UniProt Q13554)
panel of more than 300 wild-type and mutant kinases (313 kinase panel) (Homo sapiens, UniProt Q13554), sequence (Q13554 whole entry, change not shown): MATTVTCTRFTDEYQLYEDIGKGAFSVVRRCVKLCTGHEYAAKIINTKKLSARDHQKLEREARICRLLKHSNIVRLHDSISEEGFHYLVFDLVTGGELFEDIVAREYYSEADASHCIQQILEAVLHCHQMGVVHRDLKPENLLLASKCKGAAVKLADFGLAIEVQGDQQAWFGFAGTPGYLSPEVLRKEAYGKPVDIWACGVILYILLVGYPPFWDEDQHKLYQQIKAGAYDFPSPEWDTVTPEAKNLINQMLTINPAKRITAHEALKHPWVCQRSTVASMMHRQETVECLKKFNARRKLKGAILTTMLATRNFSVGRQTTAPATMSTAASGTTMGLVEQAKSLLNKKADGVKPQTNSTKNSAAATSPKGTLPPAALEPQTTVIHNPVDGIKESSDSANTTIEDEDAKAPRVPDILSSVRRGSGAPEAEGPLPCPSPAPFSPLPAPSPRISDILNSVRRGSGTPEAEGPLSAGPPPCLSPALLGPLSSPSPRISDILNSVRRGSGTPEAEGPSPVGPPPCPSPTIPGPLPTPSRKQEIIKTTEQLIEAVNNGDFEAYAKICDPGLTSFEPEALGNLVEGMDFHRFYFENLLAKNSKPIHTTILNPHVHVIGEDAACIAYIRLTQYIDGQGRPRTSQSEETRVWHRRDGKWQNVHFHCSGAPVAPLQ

[14] = biological target: panel of more than 300 wild-type and mutant kinases (313 kinase panel) (Homo sapiens, UniProt Q14680)
[15] = biological target: panel of more than 300 wild-type and mutant kinases (313 kinase panel) (Homo sapiens, UniProt Q9Y2H1)
panel of more than 300 wild-type and mutant kinases (313 kinase panel) (Homo sapiens, UniProt Q9Y2H1), sequence (Q9Y2H1 whole entry, change not shown): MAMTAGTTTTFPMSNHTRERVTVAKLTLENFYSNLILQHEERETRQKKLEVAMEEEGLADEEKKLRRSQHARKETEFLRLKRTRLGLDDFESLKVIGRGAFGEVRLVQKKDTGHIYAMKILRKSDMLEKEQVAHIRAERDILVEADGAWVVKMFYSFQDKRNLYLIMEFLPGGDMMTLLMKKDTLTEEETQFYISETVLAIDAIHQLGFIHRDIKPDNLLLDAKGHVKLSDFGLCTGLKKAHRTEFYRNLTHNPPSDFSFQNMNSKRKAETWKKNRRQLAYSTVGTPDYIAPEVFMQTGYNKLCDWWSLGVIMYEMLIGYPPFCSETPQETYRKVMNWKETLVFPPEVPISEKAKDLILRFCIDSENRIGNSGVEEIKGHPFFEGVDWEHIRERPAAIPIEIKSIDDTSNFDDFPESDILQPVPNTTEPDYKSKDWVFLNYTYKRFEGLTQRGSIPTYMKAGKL

[16] = kinase AMPKα1/β1/γ1, 1 μM compound
[17] = kinase CDK4/CycD3, 1 μM compound

panel of more than 300 wild-type and mutant kinases (313 kinase panel) (Homo sapiens, UniProt P04626), sequence (P04626 23-1255, change not shown): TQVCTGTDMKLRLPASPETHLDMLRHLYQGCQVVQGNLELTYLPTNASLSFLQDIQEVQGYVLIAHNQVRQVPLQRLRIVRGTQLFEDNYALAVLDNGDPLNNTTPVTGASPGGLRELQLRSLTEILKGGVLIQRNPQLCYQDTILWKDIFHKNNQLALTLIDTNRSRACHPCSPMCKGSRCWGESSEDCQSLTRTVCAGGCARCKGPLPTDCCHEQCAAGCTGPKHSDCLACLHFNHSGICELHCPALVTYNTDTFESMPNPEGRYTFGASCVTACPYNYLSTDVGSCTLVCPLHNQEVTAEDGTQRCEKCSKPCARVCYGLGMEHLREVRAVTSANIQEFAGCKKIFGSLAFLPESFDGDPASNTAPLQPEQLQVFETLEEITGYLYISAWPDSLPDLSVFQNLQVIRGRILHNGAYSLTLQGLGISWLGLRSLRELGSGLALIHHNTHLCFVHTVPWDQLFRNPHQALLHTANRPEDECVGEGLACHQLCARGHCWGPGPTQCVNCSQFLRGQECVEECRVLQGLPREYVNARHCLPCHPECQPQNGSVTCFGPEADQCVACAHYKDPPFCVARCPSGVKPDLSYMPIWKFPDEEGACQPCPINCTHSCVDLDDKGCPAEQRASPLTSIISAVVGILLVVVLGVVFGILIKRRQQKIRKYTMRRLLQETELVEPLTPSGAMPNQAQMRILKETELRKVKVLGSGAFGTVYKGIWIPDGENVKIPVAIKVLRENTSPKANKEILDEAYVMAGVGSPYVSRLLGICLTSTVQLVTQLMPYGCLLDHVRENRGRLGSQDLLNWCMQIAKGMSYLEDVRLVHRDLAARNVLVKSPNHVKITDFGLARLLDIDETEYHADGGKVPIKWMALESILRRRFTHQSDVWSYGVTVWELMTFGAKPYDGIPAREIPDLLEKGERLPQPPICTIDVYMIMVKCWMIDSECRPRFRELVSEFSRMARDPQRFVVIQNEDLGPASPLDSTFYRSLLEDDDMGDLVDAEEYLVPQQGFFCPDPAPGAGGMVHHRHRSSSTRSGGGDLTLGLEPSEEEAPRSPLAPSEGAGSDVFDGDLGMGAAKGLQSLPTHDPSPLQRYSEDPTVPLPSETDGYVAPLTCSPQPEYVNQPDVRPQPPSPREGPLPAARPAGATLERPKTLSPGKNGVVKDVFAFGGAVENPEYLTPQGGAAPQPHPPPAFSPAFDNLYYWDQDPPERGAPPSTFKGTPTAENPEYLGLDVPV

Row | Structure (SMILES) | %-inhibition of PDHK4 ([1]; kinase PDHK4, 1 μM) [%] | %-inhibition of HER2 [2] [%] | %-inhibition of TRKA ([3]; kinase TRKA, 1 μM) [%] | %-inhibition of FGFR4 ([4]; kinase FGFR4, compound at 1 μM) [%] | %-inhibition, CK1γ2 ([5]; kinase CK1γ2, 1 μM compound) [%] | %-inhibition, AMPKα1/β1/γ1 [6, 16] [%] | %-inhibition of Erk5 ([7]; kinase Erk5, compound at 1 μM) [%] | %-inhibition of PASK ([8]; kinase PASK, 1 μM) [%] | %-inhibition of PLK2 ([9]; kinase PLK2, 1 μM) [%] | %-inhibition of WNK2 ([10]; kinase WNK2, compound at 1 μM) [%] | %-inhibition, CDK4/CycD3 [11, 17] [%] | %-inhibition of JNK1 ([12]; kinase JNK1, compound at 1 μM) [%] | %-inhibition, CaMK2β ([13]; kinase CaMK2β, 1 μM compound) [%] | %-inhibition of MELK ([14]; kinase MELK, compound at 1 μM) [%] | %-inhibition of NDR2 ([15]; kinase NDR2, 1 μM) [%] | further results
1 | CN(C)C/C=C/C(=O)Nc1cc2c(Nc3ccc(F)c(Cl)c3)ncnc2cc1O[C@H]1CCOC1 [afatinib] | -3.28 | – | – | – | – | – | – | – | – | – | – | – | – | – | – | –
2 | COc1cc(Nc2c(C#N)cnc3cc(OCCCN4CCN(C)CC4)c(OC)cc23)c(Cl)cc1Cl [bosutinib] | – | 88 | 88 | 2.67 | -2.3 | 9 | 3.35 | -0.0941 | 21 | 4 | – | – | – | – | – | –
3 | COc1cc2nccc(Oc3ccc(NC(=O)C4(C(=O)Nc5ccc(F)cc5)CC4)cc3)c2cc1OC [cabozantinib] | 3.76 | 10 | 100 | 8 | 0.731 | -1 | -2 | -2.16 | 4.4 | 6.43 | -5 | -2.85 | -4 | 54 | -6 | –
4 | C[C@@H](Oc1cc(-c2cnn(C3CCNCC3)c2)cnc1N)c1c(Cl)ccc(F)c1Cl [crizotinib] | -3.76 | -0.714 | 103 | 0 | – | 16 | 45 | 1 | 1.1 | -4 | 7 | 0.431 | – | 5.47 | -4.76 | –
5 | CC(C)(C)c1nc(-c2cccc(NS(=O)(=O)c3c(F)cccc3F)c2F)c(-c2ccnc(N)n2)s1 [dabrafenib] | -1 | 50 | – | 19 | – | – | 0.144 | 1.12 | -4.64 | 0.686 | – | -1.12 | -0.277 | 82 | -2 | –
6 | Cc1nc(Nc2ncc(C(=O)Nc3c(C)cccc3Cl)s2)cc(N2CCN(CCO)CC2)n1 [dasatinib] | – | – | – | – | 20 | – | 5 | – | – | 20 | 2.8 | – | -6 | – | -6 | –
7 | C#Cc1cccc(Nc2ncnc3cc(OCCOC)c(OCCOC)cc23)c1 [erlotinib] | – | – | – | – | – | – | – | – | – | – | – | – | – | – | – | %-inhibition of TRKA ([3]; 1 µM): 14%; %-inhibition, CDK4/CycD3 ([11]; 1 µM): 1.86%; %-inhibition of FGFR4 ([4]; 1 µM): 6%; %-inhibition of JNK1 ([12]; 1 µM): 1.68%; %-inhibition, CK1γ2 ([5]; 1 µM): 8%; %-inhibition, AMPKα1/β1/γ1 ([6]; 1 µM): 2%; %-inhibition of Erk5 ([7]; 1 µM): 21%; %-inhibition, CaMK2β ([13]; 1 µM): -6%; %-inhibition of MELK ([14]; 1 µM): 2.69%; %-inhibition of PDHK4 ([1]; 1 µM): -9%; %-inhibition of PASK ([8]; 1 µM): -9%; %-inhibition of PLK2 ([9]; 1 µM): -3.59%; %-inhibition of NDR2 ([15]; 1 µM): -6%; %-inhibition of WNK2 ([10]; 1 µM): -7%
8 | O=S(=O)(c1cccc2cnccc12)N1CCCNCC1 [fasudil] | 4.74 | 0.678 | -2.44 | – | 18 | -14 | -3.32 | 2.25 | 7 | 1.45 | -2.33 | -5.43 | 2.58 | 25 | 25 | –
9 | Cc1ccc(Nc2nccc(N(C)c3ccc4c(C)n(C)nc4c3)n2)cc1S(N)(=O)=O [pazopanib] | -1 | 1.07 | – | – | -0.747 | -0.748 | 16 | -2.41 | 1.23 | 3 | 16 | – | -2.29 | -0.665 | 2.36 | –
10 | Cc1ccc(C(=O)Nc2ccc(CN3CCN(C)CC3)c(C(F)(F)F)c2)cc1C#Cc1cnc2cccnn12 [ponatinib] | -1.4 | 88 | 101 | 98 | 0.169 | 46 | 3.45 | 25 | -1.17 | 13 | 24 | – | – | – | – | –
11 | CCN(CC)CCNC(=O)c1c(C)[nH]c(/C=C2\C(=O)Nc3ccc(F)cc32)c1C [sunitinib] | – | – | 98 | – | – | – | 22 | – | – | – | – | – | – | 95 | – | –

Source: paper PMC3961306, “Comparison of the Cancer Gene Targeting and Biochemical Selectivities of All Targeted Kinase Inhibitors Approved for Clinical Use” (PLoS ONE, 2014)
